# In ChEMBL document CHEMBL1201862, “PubChem BioAssay data set” (2004):
#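 Growth conditions: 96-well plates. Treatment: test compound, 48 hours, 5 concentrations. Analysis: linear interpolation between bracketing concentrations; unreached endpoints set to highest concentration. GI50: concentration for 50% inhibition of growth.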 Activity calls are given as the source filed them. Rule as the data show it: active = GI50 up to about 1.1 µM and inactive = higher.
# Tests used:
# Assay in all cases: growth of human tumour cells (NCI), 48 h
# RPMI-8226 = system: RPMI-8226
# HT-29 = system: HT-29
# SNB-19 = system: SNB-19
# IGROV-1 = system: IGROV-1
# UACC-257 = system: UACC-257
# COLO 205 = system: COLO 205
# NCI-H226 = system: NCI-H226
# EKVX = system: EKVX
# KM12 = system: KM12
# ACHN = system: ACHN
# SNB-75 = system: SNB-75
# M14 = system: M14
# HCT-15 = system: HCT-15
# SK-MEL-2 = system: SK-MEL-2
SMILES,GI50 (RPMI-8226),GI50 (HT-29),GI50 (SNB-19),GI50 (IGROV-1),GI50 (UACC-257),GI50 (COLO 205),GI50 (NCI-H226),GI50 (EKVX),GI50 (KM12),GI50 (ACHN),GI50 (SNB-75),GI50 (M14),GI50 (HCT-15) [µM],GI50 (SK-MEL-2)
Cc1ccc(NC(=O)COC(=O)c2cccc3c(=O)c4ccccc4[nH]c23)cc1,87.7 µM (inactive),36.6 µM (inactive),40.6 µM (inactive),44.8 µM (inactive),39.9 µM (inactive),21.9 µM (inactive),26.5 µM (inactive),16.8 µM (inactive),22.1 µM (inactive),27 µM (inactive),31.3 µM (inactive),68.5 µM (inactive),,
CNS(=O)(=O)NNS(=O)(=O)c1ccccc1,> 100 µM (inactive),> 100 µM (inactive),> 100 µM (inactive),> 100 µM (inactive),> 100 µM (inactive),> 100 µM (inactive),> 100 µM (inactive),> 100 µM (inactive),> 100 µM (inactive),> 100 µM (inactive),> 100 µM (inactive),> 100 µM (inactive),> 100,> 100 µM (inactive)
CC(=O)N1c2ccccc2N(C(C)=O)C1c1ccc(C2N(C(C)=O)c3ccccc3N2C(C)=O)[nH]1,> 100 µM (inactive),> 100 µM (inactive),> 100 µM (inactive),> 100 µM (inactive),> 100 µM (inactive),> 100 µM (inactive),> 100 µM (inactive),> 100 µM (inactive),> 100 µM (inactive),,> 100 µM (inactive),> 100 µM (inactive),> 100,
C1C[N+]23CCC[N+]2(C1)CCC3 (stereo unspecified),,> 100 µM (inactive),> 100 µM (inactive),> 100 µM (inactive),> 100 µM (inactive),> 100 µM (inactive),> 100 µM (inactive),> 100 µM (inactive),> 100 µM (inactive),> 100 µM (inactive),97.5 µM (inactive),> 100 µM (inactive),> 100,> 100 µM (inactive)
CC1CN(c2ccc(Cl)cc2)CC(C)OC(=O)O1 (stereo unspecified),> 100 µM (inactive),> 100 µM (inactive),> 100 µM (inactive),> 100 µM (inactive),> 100 µM (inactive),> 100 µM (inactive),> 100 µM (inactive),> 100 µM (inactive),> 100 µM (inactive),> 100 µM (inactive),> 100 µM (inactive),> 100 µM (inactive),> 100,> 100 µM (inactive)
O=C(/C=C/c1ccccc1)/C=C/c1ccccc1,39.3 µM (inactive),17.8 µM (inactive),,28.1 µM (inactive),24.4 µM (inactive),> 100 µM (inactive),> 100 µM (inactive),,18 µM (inactive),18.9 µM (inactive),47.6 µM (inactive),19.8 µM (inactive),23.6,> 100 µM (inactive)
COC(=O)/C(=N\NC(C)(C)C)C(C(=O)OC)C(=O)C(=O)Nc1cc(Cl)ccc1Cl (stereo unspecified),,> 100 µM (inactive),> 100 µM (inactive),> 100 µM (inactive),> 100 µM (inactive),> 100 µM (inactive),> 100 µM (inactive),> 100 µM (inactive),> 100 µM (inactive),> 100 µM (inactive),> 100 µM (inactive),> 100 µM (inactive),> 100,> 100 µM (inactive)
O=C1C(=O)C(Br)(Br)C(Br)=C1Br,22.3 µM (inactive),19 µM (inactive),68.9 µM (inactive),38.1 µM (inactive),20.3 µM (inactive),17.1 µM (inactive),,25.4 µM (inactive),12.9 µM (inactive),15.9 µM (inactive),14.4 µM (inactive),17.6 µM (inactive),19.8,17.1 µM (inactive)
CC1(C(=O)NCCN(CCNC(=O)C2(C)CC3(C)CC(C)(C2)C(=O)NC3=O)CCNC(=O)C2(C)CC3(C)CC(C)(C2)C(=O)NC3=O)CC2(C)CC(C)(C1)C(=O)NC2=O (stereo unspecified),> 100 µM (inactive),> 100 µM (inactive),> 100 µM (inactive),> 100 µM (inactive),> 100 µM (inactive),> 100 µM (inactive),,> 100 µM (inactive),> 100 µM (inactive),> 100 µM (inactive),> 100 µM (inactive),> 100 µM (inactive),> 100,> 100 µM (inactive)
N#CNc1nc(N)c(-c2ccc(Cl)cc2)c(C(=O)Nc2nccs2)n1,> 100 µM (inactive),> 100 µM (inactive),> 100 µM (inactive),> 100 µM (inactive),> 100 µM (inactive),,> 100 µM (inactive),> 100 µM (inactive),> 100 µM (inactive),> 100 µM (inactive),> 100 µM (inactive),> 100 µM (inactive),> 100,> 100 µM (inactive)
CCOC(=O)NC(=O)c1cn(CCOCCOC(=O)NCCCCCCNC(=O)OCCOCCn2cc(C(=O)NC(=O)OCC)c(=O)[nH]c2=O)c(=O)[nH]c1=O,> 100 µM (inactive),> 100 µM (inactive),> 100 µM (inactive),> 100 µM (inactive),> 100 µM (inactive),> 100 µM (inactive),,> 100 µM (inactive),> 100 µM (inactive),> 100 µM (inactive),> 100 µM (inactive),> 100 µM (inactive),> 100,> 100 µM (inactive)
O=C(OCCOCCOC(=O)c1c[nH]cc1-c1ccccc1)c1c[nH]cc1-c1ccccc1,15 µM (inactive),18.8 µM (inactive),24.3 µM (inactive),21.3 µM (inactive),18.7 µM (inactive),19.8 µM (inactive),19.2 µM (inactive),26.7 µM (inactive),20.2 µM (inactive),,17.2 µM (inactive),14.8 µM (inactive),19.2,
O=C1CCC2(c3ccc(Cl)cc3)Nc3cc(Cl)ccc3N12 (stereo unspecified),16.4 µM (inactive),12.4 µM (inactive),16.4 µM (inactive),13.6 µM (inactive),13.6 µM (inactive),4.7 µM (inactive),,15 µM (inactive),12 µM (inactive),10.4 µM (inactive),12.2 µM (inactive),15.2 µM (inactive),12.2,11.4 µM (inactive)
C/C=C1\CN2CCc3c([nH]c4ccccc34)C2C=C1CCO (stereo unspecified),> 340 µM (inactive),> 340 µM (inactive),> 340 µM (inactive),> 340 µM (inactive),> 340 µM (inactive),> 340 µM (inactive),> 340 µM (inactive),> 340 µM (inactive),> 340 µM (inactive),> 340 µM (inactive),,,> 340,> 340 µM (inactive)
Cc1nn(C(=O)CC(=O)Nc2ccc(Cl)cc2)c(C)c1/N=N/c1ccccc1C(=O)O,> 100 µM (inactive),> 100 µM (inactive),> 100 µM (inactive),> 100 µM (inactive),> 100 µM (inactive),> 100 µM (inactive),,> 100 µM (inactive),> 100 µM (inactive),,39.5 µM (inactive),> 100 µM (inactive),> 100,> 100 µM (inactive)
